# Tests used:
# Type in all cases: biochemical
# Settings in all cases: luminometer
# TNIK = target: T1, TNIK (Homo sapiens, UniProt Q9UKE5); assay: TNIK inhibition, ADP-Glo Kinase Assay
# T1 construct: purchased Promega V4158
# Protocol: Inhibition activities on TNIK, IKKε and TBK1 were evaluated using the compounds of Examples 1 to 254.
# The inhibition activities on TNIK, IKKε and TBK1 were measured by a luminometer, TNIK/IKKε/TBK1 Kinase Enzyme System (Promega, Ca# V4158; Invitrogen, PR8031B, Promega, Ca# V3991) and ADP-Glo Kinase Assay using ADP-Glo™ Kinase Analysis Kit (Promega, Ca# V9101) and a kinase reaction buffer [40 mM Tris(pH 7.5), 20 mM MgCl2, 0.1 mg/mL BSA] in accordance with the manufacturer's protocol.
# TBK1 = target: T2, TBK1 (Homo sapiens, UniProt Q9UHD2); assay: TBK1 inhibition, ADP-Glo Kinase Assay
# T2 construct: purchased Promega V3991
# T2 sequence (Q9UHD2 1-729): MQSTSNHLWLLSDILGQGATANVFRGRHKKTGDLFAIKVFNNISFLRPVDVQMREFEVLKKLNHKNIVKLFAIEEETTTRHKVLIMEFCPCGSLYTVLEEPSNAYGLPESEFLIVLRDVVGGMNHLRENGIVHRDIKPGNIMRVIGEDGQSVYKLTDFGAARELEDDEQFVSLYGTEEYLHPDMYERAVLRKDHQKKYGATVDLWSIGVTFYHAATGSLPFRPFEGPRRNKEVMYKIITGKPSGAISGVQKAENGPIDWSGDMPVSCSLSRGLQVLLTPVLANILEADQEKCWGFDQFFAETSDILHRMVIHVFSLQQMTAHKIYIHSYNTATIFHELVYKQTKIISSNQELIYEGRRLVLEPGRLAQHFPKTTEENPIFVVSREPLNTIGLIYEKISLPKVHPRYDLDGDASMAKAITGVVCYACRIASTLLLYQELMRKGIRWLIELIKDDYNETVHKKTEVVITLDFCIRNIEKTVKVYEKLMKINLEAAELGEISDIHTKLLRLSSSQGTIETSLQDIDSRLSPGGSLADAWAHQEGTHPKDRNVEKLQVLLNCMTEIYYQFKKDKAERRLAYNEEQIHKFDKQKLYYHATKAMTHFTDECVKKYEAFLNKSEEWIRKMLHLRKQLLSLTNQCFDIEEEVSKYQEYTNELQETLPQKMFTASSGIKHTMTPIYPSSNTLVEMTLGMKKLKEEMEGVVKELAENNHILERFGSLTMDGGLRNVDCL
# Method in brief: (§1)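 Each recombinant kinase enzyme system was run per the manufacturer's protocol in 40 mM Tris pH 7.5, 20 mM MgCl2 and 0.1 mg/mL BSA. Kinase activity was detected as ADP formation by ADP-Glo luminescence.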
# IKKε = target: T3, IKKε (Homo sapiens, UniProt Q14164); assay: IKKε inhibition, ADP-Glo Kinase Assay
# T3 construct: purchased Invitrogen PR8031B
# T3 sequence (Q14164 1-716): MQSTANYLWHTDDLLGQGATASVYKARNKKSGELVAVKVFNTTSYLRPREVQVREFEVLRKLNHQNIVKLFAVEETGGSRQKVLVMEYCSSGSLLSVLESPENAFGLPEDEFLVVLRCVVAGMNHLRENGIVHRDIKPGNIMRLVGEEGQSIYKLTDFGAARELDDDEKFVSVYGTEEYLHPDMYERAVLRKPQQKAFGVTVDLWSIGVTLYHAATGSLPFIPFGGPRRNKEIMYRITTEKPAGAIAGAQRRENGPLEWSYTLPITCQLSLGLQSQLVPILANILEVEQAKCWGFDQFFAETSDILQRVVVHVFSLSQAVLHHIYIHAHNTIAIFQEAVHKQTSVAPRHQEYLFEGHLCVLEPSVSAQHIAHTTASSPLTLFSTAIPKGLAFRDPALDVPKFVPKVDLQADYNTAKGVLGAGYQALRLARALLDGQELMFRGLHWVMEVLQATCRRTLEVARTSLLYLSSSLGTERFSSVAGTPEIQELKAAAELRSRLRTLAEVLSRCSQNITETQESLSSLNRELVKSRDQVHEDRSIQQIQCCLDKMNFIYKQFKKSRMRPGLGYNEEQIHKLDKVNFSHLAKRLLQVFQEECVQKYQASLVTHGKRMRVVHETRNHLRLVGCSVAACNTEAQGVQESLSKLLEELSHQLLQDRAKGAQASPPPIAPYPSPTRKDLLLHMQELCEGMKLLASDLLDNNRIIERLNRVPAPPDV
# Method in brief: as §1
# T1 sequence (Q9UKE5 1-367 limits assumed): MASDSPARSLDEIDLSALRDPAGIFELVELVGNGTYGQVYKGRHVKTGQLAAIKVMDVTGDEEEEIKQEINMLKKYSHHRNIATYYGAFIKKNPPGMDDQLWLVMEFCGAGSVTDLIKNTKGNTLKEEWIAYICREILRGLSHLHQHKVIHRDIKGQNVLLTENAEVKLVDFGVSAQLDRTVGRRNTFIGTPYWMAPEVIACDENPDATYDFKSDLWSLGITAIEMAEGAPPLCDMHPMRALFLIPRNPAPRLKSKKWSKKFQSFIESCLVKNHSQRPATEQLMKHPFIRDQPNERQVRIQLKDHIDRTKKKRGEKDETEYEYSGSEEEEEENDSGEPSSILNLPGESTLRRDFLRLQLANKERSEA
IC50 (TNIK) [µM],IC50 (TBK1) [µM],IC50 (IKKε) [µM],SMILES
0.085,0.12,0.32,"Cc1cnc(-c2cc3[nH]nc(NC(=O)c4ccc(NCCN5CCCCC5)cc4)c3s2)o1 [Example 224, N-(5-(5-methyloxazol-2-yl)-1H-thieno[3,2-c]pyrazol-3-yl)-4-((2-(piperidin-1-yl)ethyl)amino)benzamide]"
0.049,0.13,0.35,"Cc1cnc(-c2cc3[nH]nc(NC(=O)c4ccc(N5CCN(C)CC5)cc4)c3s2)o1 [Example 225, N-(5-(5-methyloxazol-2-yl)-1H-thieno[3,2-c]pyrazol-3-yl)-4-(4-methylpiperazin-1-yl)benzamide]"

# Source: patent US10294207B2, “Pyrazole derivatives as TNIK, IKKϵ and TBK1 inhibitor and pharmaceutical composition comprising same” (GREEN CROSS CORPORATION, priority 2015, dated 2019)
